Results taken from paper PMC2362735, “New semisynthetic vinca alkaloids: chemical, biochemical and cellular studies” (British Journal of Cancer, 1999).

What was measured:
[1] = system: Mouse Ehrlich ascites tumour cells; assay: In vivo anti-tumour effect on Ehrlich ascites carcinoma, single i.p. dose 4 days after transplantation
From the text: (§1) The numerous antimitotic drugs already developed and therapeu- tically used for a large number of pathologies belong to different classes based on their chemical structure and other distinctive features. Antimitotic drugs usually target the tubulin/microtubule network of the cytoskeleton that is formed by assembly of cyto- plasmic tubulin dimers. The stability of the different microtubular structures varies considerably; some of their functions depend on their lability. The lability is augmented by the extreme sensitivity to various drugs. Several synthetic and natural compounds interact specifically with tubulin and/or microtubule, fundamentally destroying its dynamic character and leading to cell death. […] Because of their extensive clinical use, it is important to synthesize additional agents having at least the same biological activity. […] Nevertheless, it is unclear yet how the anti-calmodulin activity of these drugs is related to their desired and undesired pharmacological effects. […] The synthesis of the KAR derivatives are presented. […] Taxol, GTP and trifluoperazine were purchased from Sigma. All organic reagents for synthesis of the new compounds were obtained from Aldrich and were of the highest grade. All other chemicals were reagent grade commercial preparations. […] Tubulin was stored in 1 M sucrose, 10 mM sodium phosphate buffer, 0.5 mM magnesium chloride and 0.1 mM GTP, pH 7.0, at -80C and dialysed against the appropriate buffer before use. […] PFK, aldolase and glycerol-3-phosphate dehydrogenase- triosephosphate isomerase purified from rabbit skeletal muscle were purchased in ammonium sulphate suspensions from Sigma or Boehringer. The enzyme suspensions were centrifuged at 10 000g for 5 min. The pellets were suspended in the appropriate buffer, then the enzymes were gel filtered or dialysed in the same buffer to remove ammonium sulphate. […] (Figure 1B; R1 , CH3; R2 , CH2 CH2 Cl). […] After 2 h incubation at room temperature, 200 ml dried toluene was added to the reaction mixture. […] The mixture was stirred for 30 min. After separation of the organic phase, it was washed with water (3 x 30 ml) and dried with potassium sulphate and evaporated on a water bath of 35-40C at 20-27 hPa. The resulting material was chromatographed on silica gel (500 g, bead size of 0.040- 0.063 mm) column (30 mm x 500 mm) using ethyl acetate/ethanol (9:1) mixture as eluent. […] The mixture was kept for 4 h at room temperature and then evaporated on a water bath at 40C under a vacuum of 80 hPa to a final volume of 5-6 ml. […] (Figure 1B, R1 , CHO; R2 , CH2 CH2 Cl). […] Synthesis of KAR-4 [3-allyl-2,4-dioxo-3,5-spiro-oxazolidino- 4-deacetoxy-vinblastine] (Figure 1B; R1 , CH3; R2 , CH2 CH=CH2 ). […] NMR measurements were carried out on a Varian Unity plus-500 instrument (500 MHz for 1H and 125 MHz for 13C) in DMSO. Chemical shifts were determined relative to dTMS = 0.00 p.p.m. 1H and 13C signal assignments were verified by a concerted use of two-dimensional 1H-1H and 1H-13C shift correlation methods (DQFCOSY, HSQC, HMBC) and NOESY experiments. The gradient-enhanced DQFCOSY, HSQC, HMBC and NOESY experiments were recorded by using the standard spectrometer software package. A mixing time of tmix = 0.5 s was used for the NOESY experiments.

[2] = system: Mouse leukaemia P388 cells; assay: In vivo anti-tumour effect on P388 mouse leukaemia, single i.p. dose; conditions: P388 mice, single dose i.p.
From the text: as §1

[3] = Table 2A, 40 mg kg-1 single dose i.p.
[4] = Table 2B, 20 mg kg-1 single dose i.p.
[5] = Table 2B, 40 mg kg-1 single dose i.p.
[6] = Table 2B, 60 mg kg-1 single dose i.p.
[7] = Table 2B, 80 mg kg-1 single dose i.p.

Which “mortality of treated animals” value ([1]; 80 mg kg-1 single dose i.p., three mice per group) does the source give for `CC[C@]1(O)C[C@@H]2CN(CCc3c([nH]c4ccccc34)[C@@](C(=O)OC)(c3cc4c(cc3OC)N(C)[C@@H]3[C@]45CCN4CC=C[C@@](CC)(C[C@@]36OC(=O)N(CCCl)C6=O)[C@H]45)C2)C1` [KAR-2, 3′-(β-chloroethyl)-2′,4′-dioxo-3,5′-spiro-oxazolidino-4-deacetoxy-vinblastine] here?
The value was “The animals were dying in the same day of the sacrifice”.

And the “Cells ml-1 (per cent of control)” value [1, 3]?
Its value is 56 per cent of control.

What about the “Total cells (per cent of control)” value [1, 3] of the same molecule?
Its value is 24 per cent of control.

What about the “Volume of tumour per mouse” value ([1]; Table 2A, 40 mg kg-1 single dose i.p., sacrifice 8 days after implantation, control 5.33 ml) of the same molecule?
The value was 2.33 mL.

And the “Cells ml-1 (per cent of control)” value [1, 4]?
The value was 63 per cent of control.

What about the “Total cells (per cent of control)” value [1, 4] of the same molecule?
Its value is 46 per cent of control.

And the “Volume of tumour per mouse” value ([1]; Table 2B, 20 mg kg-1 single dose i.p., control 2.67 ml)?
The value was 1.97 mL.

What about the “Cells ml-1 (per cent of control)” value [1, 5] of the same molecule?
Its value is 60 per cent of control.

And the “Total cells (per cent of control)” value [1, 5]?
Its value is 24 per cent of control.

And the “Volume of tumour per mouse” value ([1]; Table 2B, 40 mg kg-1 single dose i.p., control 2.67 ml)?
Its value is 1.17 mL.

What about the “Cells ml-1 (per cent of control)” value [1, 6] of the same molecule?
The value was 46 per cent of control.

And the “Total cells (per cent of control)” value [1, 6]?
The value was 29 per cent of control.

And the “Volume of tumour per mouse” value ([1]; Table 2B, 60 mg kg-1 single dose i.p., control 2.67 ml)?
The value was 1.70 mL.

What about the “Cells ml-1 (per cent of control)” value [1, 7] of the same molecule?
Its value is 211 per cent of control.

What about the “Total cells (per cent of control)” value [1, 7] of the same molecule?
Its value is 36 per cent of control.

And the “Volume of tumour per mouse” value ([1]; Table 2B, 80 mg kg-1 single dose i.p., control 2.67 ml)?
Its value is 0.45 mL.

And the maximal tolerated dose [2]?
The maximal tolerated dose was 80 mg/kg.
